Source: US6762174B1 (priority 1998, dated 2004)
Several values for one entry are separate records, joined by “and”; a condition that tells them apart may be missing. Equal values may be shown once. Read-outs that look alike come from different tables or passages of the source. Marks after values point to notes of the source that are not given here.

How the values were obtained:
[1] = Taxol 40 mg/kg IV
[2] = Paclitaxel toxicity, first study: body weight and mortality; format: in vivo, female non-tumor-bearing athymic (NCr-nu) mice; settings: BT 0 mg
Experimental: The effect of combining BT with paclitaxel (PAC, or TAXOL™) on the toxicity of paclitaxel was investigated. In a first study, groups of 10 female non-tumor-bearing athymic (NCr-nu) mice were administered paclitaxel i.v. at doses of 50 and 30 mg/kg/dose on a qld×5 schedule, which means once each day for five days. Paclitaxel (PAC) was in 12.5% cremophor/12.5% ethanol/75% saline alone, or in combination with 30 mg/kg BT (first dissolved in saline) and delivered as a single i.v. injection (0.1 cc/10 gm body weight). BT was also administered on a qld×5 schedule. Body weights were measured twice a week and survival data was recorded daily. The study was terminated on day 21.
Weight loss values reflect the lowest recorded weight, which was on day 7 for all groups. Importantly, there were fewer deaths when BT was coadministered with either 30 mg or 50 mg paclitaxel.
For the group receiving 50 mg paclitaxel, the survival difference was statistically significant (log rank=6.41, p=0.0113). There were 9 deaths on day 21 with 50 mg PAC alone, but only 2 deaths when 30 mg BT was administered with 50 mg PAC. When BT was coadministered with 30 mg PAC there was only 1 death on day 21, which was due not to toxicity, but to a technician error. By contrast, there were 2 toxic deaths with 30 mg PAC alone.

[3] = system: Hybridoma cells (ATCC #CRL-8014, OKT-8); assay: Production of monoclonal antibodies from hybridomas (sandwich ELISA); format: cell-based; settings: 200 ρg/ml vs control
Experimental: Hybridoma cells (ATCC #CRL-8014, OKT-8, secreting an IgG2 anti-human T-cell subset antibody) were growth with or without N-carbobenzoxy-β-alanyl-taurine zinc salt in T25 culture flasks. Cells were inoculated at a density of 10,000 cells/ml and maintained below 500,000 cells/ml in 5 mls of protein-free media containing HyQ-PF-MAB from Hyclone. Aliquots were assayed for Mab production by a sandwich ELISA. Aliquots were diluted to be within the standard range and added to plates precoated with goat anti-mouse IgG by incubating two hours at room temperature. Wells were washed and reacted with diluted supernatants, then washed and detected with peroxidase labeled anti-mouse antibodies.

[4] = system: delayed type hypersensitivity (DTH) response to oxazalone (OX); set-up: species or system mice; settings: mouse, in vivo
[5] = system: human hematopoietic progenitor cells (CD34+ cells); assay: Blood cell stimulation: CD34+ suspension culture, lineage marker ELISA; format: cell-based
Experimental: A 96-well-based suspension culture system (Warren et al, Stem Cells 13:167 (1995) for human hematopoietic progenitor cells was used to monitor the commitment and differentiation of CD34+ cells in vitro. Expression of maturation and lineage markers on the cells in culture were measured by ELISA. […] A combination of growth factors was added that stimulates the expression of the appropriate lineage markers. The culture consisted of: IMDM plus 15% FBS, 0.5 ng/ml IL-3, 20 ng/ml SCF, 1 unit/ml EPO, 1 ng/ml GCSF and the indicated concentrations of test compounds. The cells were then fixed with a glutaraldehyde-paraformaldehyde mixture, attaching the cells firmly to the plastic. An ELISA was performed (Warren et al, Stem Cells 13:167 (1995)), using appropriate primary antibodies directed against cell surface markers. The expression of three different lineage markers was measured: CD14 (monocyte), CD15 (neutrophil), and glycophorin A (erythroid).

[6] = system: anti-Pn14 antibodies (Pn14-Tetanus Toxin antigen); set-up: species or system BALB/c female mice; settings: mouse, in vivo
[7] = Study 2: 1 ug/ml, 1700 cells per well

CC(=O)O[C@H]1C(=O)[C@@]2(C)[C@H]([C@H](OC(=O)c3ccccc3)[C@]3(O)C[C@H](OC(=O)[C@H](O)[C@@H](NC(=O)c4ccccc4)c4ccccc4)C(C)=C1C3(C)C)[C@]1(OC(C)=O)CO[C@@H]1C[C@@H]2O [PAC, paclitaxel]
Percent Body Weight Loss From Day 0 ([1]; day 1): 3.8%
Percent Body Weight Loss From Day 0 ([1]; day 5): 10.7%
Percent Body Weight Loss From Day 0 ([1]; day 6): 11.0%
Percent Body Weight Loss From Day 0 ([1]; day 7): 15.2%
Percent Body Weight Loss From Day 0 ([1]; day 8): 17.2%
Percent Body Weight Loss From Day 0 ([1]; day 9): 17.5%
Percent Body Weight Loss From Day 0 ([1]; day 10): 14.6%
Percent Body Weight Loss From Day 0 ([1]; day 11): 11.8%
Percent Body Weight Loss From Day 0 ([1]; day 12): 10.4%
Percent Body Weight Loss From Day 0 ([1]; day 13): 7.8%
Percent Body Weight Loss From Day 0 ([1]; day 21): −1.2%
deaths ([2]; PAC 30 mg, Day 1): 0
mean weight ([2]; PAC 30 mg, Day 1): 19 gm
% weight change ([2]; PAC 30 mg, Day 7): −26.3%
deaths ([2]; PAC 30 mg, Day 7): 1
mean weight ([2]; PAC 30 mg, Day 7): 14 gm
% weight change ([2]; PAC 30 mg, Day 10): −21.1%
deaths ([2]; PAC 30 mg, Day 10): 2
mean weight ([2]; PAC 30 mg, Day 10): 15 gm
% weight change ([2]; PAC 30 mg, Day 14): −5.3%
deaths ([2]; PAC 30 mg, Day 14): 2
mean weight ([2]; PAC 30 mg, Day 14): 18 gm
% weight change ([2]; PAC 30 mg, Day 21): +21.1%
deaths ([2]; PAC 30 mg, Day 21): 2
mean weight ([2]; PAC 30 mg, Day 21): 23 gm
deaths (cummul.) ([2]; PAC 50 mg, Day 1): 0
mean weight ([2]; PAC 50 mg, Day 1): 19 gm
% weight change ([2]; PAC 50 mg, Day 7): −31.6%
deaths (cummul.) ([2]; PAC 50 mg, Day 7): 1
mean weight ([2]; PAC 50 mg, Day 7): 13 gm
% weight change ([2]; PAC 50 mg, Day 10): −36.8%
deaths (cummul.) ([2]; PAC 50 mg, Day 10): 9
mean weight ([2]; PAC 50 mg, Day 10): 12 gm
% weight change ([2]; PAC 50 mg, Day 14): −26.3%
deaths (cummul.) ([2]; PAC 50 mg, Day 14): 9
mean weight ([2]; PAC 50 mg, Day 14): 14 gm
% weight change ([2]; PAC 50 mg, Day 21): +10.5%
deaths (cummul.) ([2]; PAC 50 mg, Day 21): 9
mean weight ([2]; PAC 50 mg, Day 21): 21 gm

N-carbobenzoxy-β-alanyl-taurine zinc salt
Increase of IgG μg/ml [3]: 316%
Increase of IgG ρg/cell [3]: 93%
Major DTH at 24 hrs [4]: 50*
Major DTH at 48 hrs. [4]: 50
Major DTH at either 24 or 48 hrs. [4]: 60
Moderate DTH at 24 hrs [4]: 70
response rate, moderate DTH at 24 hrs [4]: eight of ten
total treated animals with major immune response [4]: 14
total treated animals with major response [4]: 21
Major DTH at 24 hrs ([4]; iv): 20 and 10
Major DTH at 48 hrs. ([4]; iv): 20 and 10

NCCC(=O)NCCS(=O)(=O)O [Taurox-S, β-alanyl-taurine]
Percent difference (relative to control), monocytes ([5]; Study 1: 1 ng/ml compound): 47%
Percent difference (relative to control), neutrophils ([5]; Study 1: 1 ng/ml compound): 55%
Percent difference (relative to control), red blood cells ([5]; Study 1: 1 ng/ml compound): 50%
Mean Change in O.D. from pre-boost 10 days after boost with UNCONJUGATED polysaccharide [6]: 204
Mean Change in O.D. from pretest, Day 4 [6]: 2.9
Mean Change in O.D. from pretest, Day 14 [6]: 697
Mean Change in O.D. from pretest, Day 14 ([6]; ip): 681 and 671

O=C(CCNC(=O)OCc1ccccc1)NCCOP(=O)(O)O [Taurox-BOP, N-carboxybenzoxy-β-alanyl-ethanolamine phosphate]
Percent difference (relative to control), monocytes ([5]; Study 1: 1 ng/ml compound): 18%
Percent difference (relative to control), neutrophils ([5]; Study 1: 1 ng/ml compound): 21%
Percent difference (relative to control), red blood cells ([5]; Study 1: 1 ng/ml compound): 0%
Percent difference (relative to control), CD34 cells [5, 7]: 33%
Percent difference (relative to control), RBC [5, 7]: 55%
Percent difference (relative to control), monocytes [5, 7]: 9%
Mean Change in O.D. from pretest, Day 4 [6]: 0
Mean Change in O.D. from pretest, Day 14 [6]: 366
Mean Change in O.D. from pretest, Day 14 ([6]; ip): 877 and 515
